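96-well plates; 48 h exposure; 5 concentrations. Endpoints by linear interpolation between flanking doses. Not reached: highest tested concentration assigned. At the GI50, growth is halved.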 Calls of active or inactive are those of the source. Cut-off read from the data, not from the text of the source: active = GI50 up to about 1.1 µM and inactive = higher.
Key:
Experiment in all cases: growth of human tumour cells (NCI), 48 h
[1] = test system: M19-MEL
[2] = test system: OVCAR-4
[3] = test system: 786-0
[4] = test system: LOX IMVI
[5] = test system: UACC-257
[6] = test system: A549
[7] = test system: HCC 2998
[8] = test system: COLO 205
[9] = test system: U-251
[10] = test system: EKVX
[11] = test system: SK-MEL-28
[12] = test system: SW-620
[13] = test system: RXF 393
[14] = test system: HL-60
[15] = test system: T47D
[16] = test system: MDA-MB-231
[17] = test system: Hs-578T
[18] = test system: CAKI-1
[19] = test system: BT-549
[20] = test system: NCI/ADR-RES

Row | Structure (SMILES) | GI50 [1] | GI50 [2] | GI50 [3] | GI50 [4] | GI50 [5] | GI50 [6] | GI50 [7] | GI50 [8] | GI50 [9] | GI50 [10] | GI50 [11] | GI50 [12] | GI50 [13] | GI50 [14] | GI50 [15] | GI50 [16] | GI50 [17] | GI50 [18] | GI50 [19] | GI50 [20]
1 | O=C(c1ccc(Cl)cc1Cl)N(/N=C/C=C/c1ccccc1)c1nnc(-c2ccccc2)c(-c2ccccc2)n1 | > 100 µM (inactive) | > 100 µM (inactive) | > 100 µM (inactive) | > 100 µM (inactive) | > 100 µM (inactive) | > 100 µM (inactive) | > 100 µM (inactive) | > 100 µM (inactive) | > 100 µM (inactive) | > 100 µM (inactive) | > 100 µM (inactive) | > 100 µM (inactive) | > 100 µM (inactive) | > 100 µM (inactive) |  |  |  |  |  | 
2 | COc1cc2c(c(OC)c1OC)-c1cccc(=O)cc1C(NC(C)=O)CC2 (configuration not stated) | 0.605 µM (active) | 32.4 µM (inactive) | 0.136 µM (active) | 0.0449 µM (active) | 0.0607 µM (active) | 0.317 µM (active) | 0.075 µM (active) | 0.054 µM (active) | 0.0771 µM (active) | > 100 µM (inactive) | 2.15 µM (inactive) | 0.0408 µM (active) | 0.0543 µM (active) | 0.0208 µM (active) | > 100 µM (inactive) | 0.139 µM (active) | > 100 µM (inactive) | 0.211 µM (active) | 0.437 µM (active) | 
3 | CC(=O)C1Cn2c(nc3ccccc32)C[Se]1 (configuration not stated) | 1.99 µM (inactive) | 3.44 µM (inactive) | 3.32 µM (inactive) | 4.29 µM (inactive) | 2.48 µM (inactive) | 19.8 µM (inactive) | 10.3 µM (inactive) | 16.5 µM (inactive) | 2 µM (inactive) | 15 µM (inactive) | 2.98 µM (inactive) | 5.28 µM (inactive) | 2.34 µM (inactive) | 2.47 µM (inactive) |  |  |  | 2.19 µM (inactive) |  | 
4 | COc1ccc(OC)c2c1C(=O)C1CC1(Br)C2=O (configuration not stated) | > 100 µM (inactive) | > 100 µM (inactive) | > 100 µM (inactive) | > 100 µM (inactive) | > 100 µM (inactive) | > 100 µM (inactive) | > 100 µM (inactive) | > 100 µM (inactive) | > 100 µM (inactive) | 73.1 µM (inactive) | > 100 µM (inactive) | > 100 µM (inactive) |  | > 100 µM (inactive) |  |  |  | > 100 µM (inactive) |  | 
5 | COCCN1C2=CCCCC2=Nc2c(N)nc(N)nc21 | 24.3 µM (inactive) |  | > 100 µM (inactive) | > 100 µM (inactive) | > 100 µM (inactive) | > 100 µM (inactive) | > 100 µM (inactive) | > 100 µM (inactive) | > 100 µM (inactive) |  | > 100 µM (inactive) |  | > 100 µM (inactive) | > 100 µM (inactive) |  |  |  | > 100 µM (inactive) |  | 
6 | COc1cc(OC(=O)c2c(O)cc(O)c(O)c2C)cc(C)c1C(=O)Oc1cc(C)c(C(=O)O)c(O)c1 | > 100 µM (inactive) | > 100 µM (inactive) | > 100 µM (inactive) | > 100 µM (inactive) | > 100 µM (inactive) | > 100 µM (inactive) | > 100 µM (inactive) | > 100 µM (inactive) | > 100 µM (inactive) | > 100 µM (inactive) | > 100 µM (inactive) | > 100 µM (inactive) | > 100 µM (inactive) | > 100 µM (inactive) |  |  |  | > 100 µM (inactive) |  | 
7 | Cn1nc(-c2ccccc2)c(C(=O)/C=C/c2ccc(F)cc2)c(N2CCCC2)c1=O | 15.1 µM (inactive) |  | 13 µM (inactive) | 17.9 µM (inactive) |  | 15.1 µM (inactive) |  | 15.1 µM (inactive) | 13.2 µM (inactive) | 19.2 µM (inactive) | 16 µM (inactive) | 15.6 µM (inactive) | 8.2 µM (inactive) | 0.644 µM (active) |  |  |  | 12.2 µM (inactive) |  | 
8 | c1cc2[se][se]c3c4cccc5[se][se]c(c(c1)c23)c54 | > 100 µM (inactive) | > 100 µM (inactive) | > 100 µM (inactive) | > 100 µM (inactive) | > 100 µM (inactive) | > 100 µM (inactive) |  | > 100 µM (inactive) | > 100 µM (inactive) |  | > 100 µM (inactive) | > 100 µM (inactive) | > 100 µM (inactive) | > 100 µM (inactive) |  |  |  | > 100 µM (inactive) |  | 
9 | COC(=O)C1Cc2c([nH]c3ccccc23)C(c2ccccc2O)N1Cc1ccccc1 (configuration not stated) | 40.6 µM (inactive) | 24.4 µM (inactive) | 20.7 µM (inactive) | 44.9 µM (inactive) | 33.7 µM (inactive) | 32 µM (inactive) | > 31.6 µM (inactive) | 41.7 µM (inactive) | 20.6 µM (inactive) | > 31.6 µM (inactive) | > 31.6 µM (inactive) | 39.5 µM (inactive) | 20.8 µM (inactive) | > 46.5 µM (inactive) |  |  |  | 22.2 µM (inactive) |  | 
10 | CC(C)=CCC(OC(=O)C=C(C)C)c1cc(O)c2c(c1O)C(=O)C=CC2=O (configuration not stated) | 0.621 µM (active) | 0.78 µM (active) |  | 0.261 µM (active) | 0.753 µM (active) | 5.04 µM (inactive) | 2.4 µM (inactive) | 0.382 µM (active) | 3.08 µM (inactive) | 0.933 µM (active) | 0.853 µM (active) | 0.267 µM (active) | 0.218 µM (active) | 0.0419 µM (active) |  |  |  | 0.64 µM (active) |  | 0.406 µM (active)
11 | Clc1ccccc1/C=C/c1cscn1 | > 100 µM (inactive) | > 100 µM (inactive) |  | > 100 µM (inactive) | > 100 µM (inactive) |  | > 100 µM (inactive) |  | > 100 µM (inactive) | > 100 µM (inactive) | > 100 µM (inactive) |  | > 100 µM (inactive) | > 100 µM (inactive) |  |  |  |  |  | 
12 | CCOC(=O)c1cc2c(OCc3ccccc3)c(OC)cc3c2c(n1)N(c1ccc(OC)cc1)C(C)C3 (configuration not stated) | > 50 µM (inactive) | 10.4 µM (inactive) | > 50 µM (inactive) | > 50 µM (inactive) |  | > 50 µM (inactive) | 44.4 µM (inactive) | > 50 µM (inactive) | 28.6 µM (inactive) | > 50 µM (inactive) | > 50 µM (inactive) | > 50 µM (inactive) | 33.6 µM (inactive) | 45.6 µM (inactive) |  |  |  | 23.2 µM (inactive) |  | 
13 | O=C1[C@@H]2C(c3c(Cl)cccc3Cl)=NO[C@@H]2C(=O)N1c1ccc(Cc2ccc(N3C(=O)[C@H]4C(c5c(Cl)cccc5Cl)=NO[C@H]4C3=O)cc2)cc1 | > 100 µM (inactive) | > 100 µM (inactive) | > 100 µM (inactive) | > 100 µM (inactive) | > 100 µM (inactive) | > 100 µM (inactive) | > 100 µM (inactive) | > 100 µM (inactive) | > 100 µM (inactive) | > 100 µM (inactive) | > 100 µM (inactive) | > 100 µM (inactive) | > 100 µM (inactive) | > 100 µM (inactive) |  |  |  | > 100 µM (inactive) |  | 
14 | CSc1ccc(/C=C2/C[N+](C)(C)C/C(=C/c3ccc(SC)cc3)C2=O)cc1 | 6.25 µM (inactive) |  | 13.7 µM (inactive) |  | 15.8 µM (inactive) | 21.9 µM (inactive) | 15.5 µM (inactive) | 5.18 µM (inactive) | 2.54 µM (inactive) | 19.1 µM (inactive) | 8.09 µM (inactive) | 12.2 µM (inactive) | 17 µM (inactive) | 2.49 µM (inactive) |  |  |  |  |  | 
15 | NC(=O)c1ccc([N+](=O)[O-])cc1 | > 100 µM (inactive) |  | > 100 µM (inactive) | > 100 µM (inactive) | > 100 µM (inactive) | > 100 µM (inactive) | > 100 µM (inactive) | > 100 µM (inactive) | > 100 µM (inactive) | > 100 µM (inactive) | > 100 µM (inactive) | > 100 µM (inactive) | > 100 µM (inactive) |  |  |  |  | > 100 µM (inactive) |  | 
16 | CC#CC1C2CCCC1(CSc1ccccc1)NC(=O)O2 (configuration not stated) | > 100 µM (inactive) | > 100 µM (inactive) | > 100 µM (inactive) |  | > 100 µM (inactive) | > 100 µM (inactive) | > 100 µM (inactive) | > 100 µM (inactive) | > 100 µM (inactive) | > 100 µM (inactive) |  | > 100 µM (inactive) | > 100 µM (inactive) | > 100 µM (inactive) |  |  |  | > 100 µM (inactive) |  | 
17 | COc1cccc(N2C(=O)[C@H]3CC(C)c4c([nH]c5ccccc45)[C@H]3C2=O)c1 (some centres not stated) | 86.1 µM (inactive) |  | 21.7 µM (inactive) | 50.6 µM (inactive) | 42.9 µM (inactive) | 41.3 µM (inactive) | > 100 µM (inactive) | 36.1 µM (inactive) | 38.5 µM (inactive) | > 100 µM (inactive) | 62.4 µM (inactive) | > 10 µM (inactive) | 13.9 µM (inactive) | > 100 µM (inactive) |  |  |  | 39.6 µM (inactive) |  | 
18 | COc1ccccc1NC(=O)C1=C(C)NC(C)=C(C(=O)Nc2ccccc2OC)C1/C=C/c1ccccc1 | > 100 µM (inactive) | 20.1 µM (inactive) | > 100 µM (inactive) | > 100 µM (inactive) | > 100 µM (inactive) | 80.9 µM (inactive) | > 100 µM (inactive) | > 100 µM (inactive) | > 100 µM (inactive) | 89.3 µM (inactive) | > 100 µM (inactive) | > 100 µM (inactive) |  | 60.1 µM (inactive) |  |  |  | > 100 µM (inactive) |  | 
19 | Cc1ccccc1-n1c(C)nc2c1C(=O)c1ccccc1C2=O | 22.8 µM (inactive) | 27.5 µM (inactive) | 44.8 µM (inactive) |  | 35.2 µM (inactive) | 54.6 µM (inactive) | 37.1 µM (inactive) |  | 72.1 µM (inactive) | > 100 µM (inactive) | > 100 µM (inactive) | 40.5 µM (inactive) | > 100 µM (inactive) | 20.9 µM (inactive) |  |  |  | 42.7 µM (inactive) |  | 

From ChEMBL document CHEMBL1201862, “PubChem BioAssay data set” (2004)
